Holding throughout (type): cell-based, human
One experiment relates to A2780-ADR cells. As to the kind of experiment: MTT viability assay, reversal of MDR in P-gp overexpressing A2780-ADR cells. The conditions noted are these: A2780-ADR cells; for Mean % Survival: mean of 12 samples; for % Survival (individual sample): single samples (trials 1-3, samples 1-4). The method, then: (§1) The chemotherapeutic sensitive DU145 human prostate cancer cells and the multidrug resistant sub-line, DU145-TXR, were generous gifts from Dr. Evan Keller (University of Michigan, Ann Arbor, MI). The MDR, P-gp overexpressing DU145-TXR cells were maintained under positive selection pressure by supplementing complete medium with 10 nM paclitaxel (Acros Organics, NJ). In addition to the aforementioned cell lines, the chemotherapeutic sensitive A2780 ovarian cancer cells (93112519, Sigma) and the multidrug resistant A2780-ADR (93112520, Sigma) were maintained in complete RPMI media consisting of RPMI-1640 with L-glutamine, 10% fetal bovine serum (FBS; Corning), 100 U/mL penicillin and 100 μg/mL streptomycin in a humidified incubator at 37 °C and 5% CO2. The MDR, P-gp overexpressing A2780-ADR cell line was maintained under positive selection pressure by supplementing complete medium with 100 nM doxorubicin (Fisher Scientific, NJ). The non-cancerous HFL1 (human lung fibroblast) cell line cell line was a generous gift from Dr. Robert Harrod (Southern Methodist University, Dallas, TX) and was maintained in complete F12K media consisting of F12K with 10% fetal bovine serum, 100 U/mL penicillin, and 100 µg/mL streptomycin (Gibco). Flasks and 96 well plates that were used with the non-cancerous line HFL1 were pre-treated with 0.1 mg/ml Collagen Type 1 (Gibco) and rinsed with PBS (Fisher).
(§2) Culture of the DU145, DU145-TXR, and HFL1 cell lines was performed as described in [8]. Culture of the A2780 and A2780-ADR cell lines was performed as described in [9]. MTT assays were performed as described in [8] with minor modifications. LC-MS/MS accumulation assays were performed as described in {Nanayakkara, 2018 #173} [9] with some modifications. […] The inhibitor concentration was lowered to 15 µM here, as the goal of the study was to identify compounds that were effective in reversing MDR at low concentrations, and to determine if the expanded virtual-assisted methods improved on our first-draft attempt. Compounds 56–98 were pre-screened using Resazurin cell viability assays: cells were incubated with 15 µM compound with or without 500 nM PTX for 48 hours, after which cell survival was assessed similar to [39]. Data represent the mean of two separate experiments, with n = 3 samples per experiment (n = 6 total) (S4 Table). The top performing compounds from this initial screen were re-tested with MTT viability assays against DU145-TXR cells, as described below.
(§3) MTT assays measure the reduction of yellow, water soluble 3-(4,5-dimethylthiazol-2-yl)-2,5-diphenyltetrazolium bromide (MTT) to blue, insoluble formazan crystals by cellular reductase processes in living cells. Cells were trypsinized from monolayers and seeded in complete medium in 96 well plates. Cancerous cell lines (DU145, DU145-TXR, A2780, A2780-ADR) were seeded at 3,000 cells per well in complete RPMI medium. The non-cancerous HFL1 line was seeded at 4,000 cells per well in complete F12K medium, in collagen-treated plates (Collagen Type 1, Gibco). Cells were incubated with experimental compounds for 48 hours at 37 °C and 5% CO2 in a humidified incubator. At 48 hours, MTT was added (20 µL/well of 5 mg/mL MTT in PBS) to each well. After incubation for 4 hours, the media was removed, and the formazan crystals were dissolved in 100 µL DMSO per well. Plates containing the semi-adherent A2780 or A2780-ADR lines were spun at 1400 rpm for 3 minutes prior to aspiration of media, and the addition of DMSO. Plates were shaken for 10 minutes at 500 rpm on an Orbital shaker (LabDoctor from MidSci, St Louis, MO). The absorbance was measured at 570 nm using a Bio-Tek Cytation 5 (Bio-Tek, Winooski, VT). The measured absorbance value was correlated with the number of metabolically active cells in that well, corrected for absorbance of media. […]

A further experiment relates to DU145-TXR cells. As to the kind of experiment: MTT viability assay, reversal of MDR (re-sensitization to paclitaxel) in P-gp overexpressing DU145-TXR cells. The conditions noted are these: DU145-TXR; for % Survival, mean: mean of 8 samples. The method, then: as §1, §2, §3
Background: Tetrazolium dyes change colour on reduction, which living cells bring about.

In the next experiment the test system is A2780 cells. As to the kind of experiment: MTT viability assay, parental A2780 cells, with or without PTX. The conditions noted are these: A2780 cells; for Mean % Survival: mean of 8 or 12 samples; for % Survival (individual sample): single samples. As to the method: as §1, §2, §3
Another experiment has as its system DU145 cells. As to the kind of experiment: MTT viability assay, non-P-gp overexpressing DU145 parental line, with or without PTX. The conditions noted are these: DU145 cells, 48 h. The method, then:
as §1, with “In addition to the aforementioned cell lines, the chemotherapeutic sensitive A2780 ovarian cancer cells (93112519, Sigma) and the multidrug resistant A2780-ADR (93112520, Sigma) were maintained in complete RPMI media consisting of RPMI-1640 with L-glutamine, 10% fetal bovine serum (FBS; Corning), 100 U/mL penicillin and 100 μg/mL streptomycin in a humidified incubator at 37 °C and 5% CO2.” left out
Culture of the DU145, DU145-TXR, and HFL1 cell lines was performed as described in [8]. Culture of the A2780 and A2780-ADR cell lines was performed as described in [9]. MTT assays were performed as described in [8] with minor modifications. […] Data represent the mean of two separate experiments, with n = 3 samples per experiment (n = 6 total) (S4 Table).
MTT assays measure the reduction of yellow, water soluble 3-(4,5-dimethylthiazol-2-yl)-2,5-diphenyltetrazolium bromide (MTT) to blue, insoluble formazan crystals by cellular reductase processes in living cells. Cells were trypsinized from monolayers and seeded in complete medium in 96 well plates. Cancerous cell lines (DU145, DU145-TXR, A2780, A2780-ADR) were seeded at 3,000 cells per well in complete RPMI medium. The non-cancerous HFL1 line was seeded at 4,000 cells per well in complete F12K medium, in collagen-treated plates (Collagen Type 1, Gibco). Cells were incubated with experimental compounds for 48 hours at 37 °C and 5% CO2 in a humidified incubator. At 48 hours, MTT was added (20 µL/well of 5 mg/mL MTT in PBS) to each well. After incubation for 4 hours, the media was removed, and the formazan crystals were dissolved in 100 µL DMSO per well. Plates containing the semi-adherent A2780 or A2780-ADR lines were spun at 1400 rpm for 3 minutes prior to aspiration of media, and the addition of DMSO. Plates were shaken for 10 minutes at 500 rpm on an Orbital shaker (LabDoctor from MidSci, St Louis, MO). The absorbance was measured at 570 nm using a Bio-Tek Cytation 5 (Bio-Tek, Winooski, VT). The measured absorbance value was correlated with the number of metabolically active cells in that well, corrected for absorbance of media. The percent of cell viability (termed ‘survival’ here) was calculated as a percentage of survival of the control condition, which refers to vehicle-treated (DMSO as vehicle) cells, or vehicle-and-chemotherapeutic-treated cells, if testing a compound’s ability to re-sensitize cells to a chemotherapeutic. Percent survival was calculated using the following equation:
% Survival=100 × absorbance of experimental cells/mean absorbance of control treated cells
For DU145-TXR, DU145, HFL1 and A2780 cells – data are the mean ± one standard deviation, 8 samples per compound, from at least two independent trials per compound. […] For A2780-ADR cells, data are the mean ± one standard deviation with 12 samples per compound, from at least two independent trials per compound.
67 compounds were chosen from computational screens for testing in vitro. A) DU145-TXR cells were exposed to 15 µM experimental compound with or without 500 nM of the P-gp substrate and chemotherapeutic paclitaxel (PTX).

[1] abbreviates: single samples, 2 trials x 4 samples, listed as VPL.

Several values for one entry are separate records, joined by “and”; a condition that tells them apart may be missing. Equal values may be shown once.

The values that follow come from paper PMC12349723, “Computationally accelerated identification of P-glycoprotein inhibitors” (PLOS One, 2025).

Consider `COc1ccc(CCN(C)CCCC(C#N)(c2ccc(OC)c(OC)c2)C(C)C)cc1OC` (stereo not drawn) [VER], for which the “Mean % Survival” value with A2780-ADR cells (15 µM compound + 500 nM PTX) stood at 52.3%; with A2780-ADR cells (15 µM compound alone), 84.8%; with A2780 cells (15 µM compound + 500 nM PTX), 14.9%; in the experiment on A2780 cells (15 µM compound alone), 75.9%. The “% Survival (individual sample)” value in the experiment with A2780-ADR cells (15 µM compound + 500 nM PTX) was 58% and 57% and 53% and 42% and 41% and 51% and 47%; in the experiment on A2780-ADR cells (15 µM compound alone), 80% and 82% and 85% and 92% and 94% and 95% and 89% and 81% and 77% and 66%; with A2780 cells (15 µM compound + 500 nM PTX), 17% and 18% and 12% and 50% and 11% and 10% and 9%; with A2780 cells (15 µM compound alone), 74% and 75% and 86% and 67% and 64% and 83% and 79%. The “% Survival, mean” value in the experiment on DU145-TXR cells (15 µM Compound Alone) is listed as 86.2%; in the experiment with DU145-TXR cells (15 µM compound + 500 nM PTX (Paclitaxel, Taxol)) it was 21.9%. Besides, the “% Survival” value with DU145-TXR cells (15 µM Compound Alone, trial 1, sample 1) turned out to be 98%; in the experiment with DU145-TXR cells (15 µM Compound Alone, trial 1, sample 2), 95%; with DU145-TXR cells (15 µM Compound Alone, trial 1, sample 3), 96%; in the experiment on DU145-TXR cells (15 µM Compound Alone, trial 1, sample 4), 90%; in the experiment with DU145-TXR cells (15 µM Compound Alone, trial 2, sample 1), 79%; in the experiment with DU145-TXR cells (15 µM Compound Alone, trial 2, sample 2), 74%. In addition, the “% Survival” value turned out to be 72% with DU145-TXR cells (15 µM Compound Alone, trial 2, sample 3); 85% in the experiment on DU145-TXR cells (15 µM Compound Alone, trial 2, sample 4); 19% in the experiment on DU145-TXR cells (15 µM compound + 500 nM PTX (Paclitaxel, Taxol), trial 1, sample 1); 23% in the experiment on DU145-TXR cells (15 µM compound + 500 nM PTX (Paclitaxel, Taxol), trial 1, sample 2); 29% in the experiment on DU145-TXR cells (15 µM compound + 500 nM PTX (Paclitaxel, Taxol), trial 1, sample 3); 18% in the experiment on DU145-TXR cells (15 µM compound + 500 nM PTX (Paclitaxel, Taxol), trial 1, sample 4). The “% Survival” value in the experiment on DU145-TXR cells (15 µM compound + 500 nM PTX (Paclitaxel, Taxol), trial 2, sample 1) is on record as 23%; in the experiment with DU145-TXR cells (15 µM compound + 500 nM PTX (Paclitaxel, Taxol), trial 2, sample 2) it was 20%; in the experiment with DU145-TXR cells (15 µM compound + 500 nM PTX (Paclitaxel, Taxol), trial 2, sample 3), 23%; with DU145-TXR cells (15 µM compound + 500 nM PTX (Paclitaxel, Taxol), trial 2, sample 4), 21%.
For the compound `COc1ccc(CCN(C)CCCC(C#N)(c2ccc(OC)c(OC)c2)C(C)C)cc1OC` (stereo not drawn) [Verapamil, reference compound], the “% Survival, Mean, 15 µM compound + 500 nM PTX” value with DU145 cells (mean of 8 samples) came out at 8.6%. For the same compound, in the experiment with DU145 cells (setting [1]), the “% Survival, 15 µM Compound alone (individual samples)” value is 53% and the “% Survival, 15 µM compound + 500 nM PTX (individual samples)” value is 7%. In addition, the viability at 15 µM in the experiment with DU145 cells (Homo sapiens, DU-145, 48 h, mean of 8 samples, read-out: % Survival, Mean, 15 µM Compound alone) is 45.5%.
